In test [1] the test system is genotype A, "Long" strain RSV. The experiment in a line: RSV-A assay (CPE, ATPlite readout in Hep-2 cells). Type of test: cell-based. The note with it: human respiratory syncytial virus, HEp-2, Hep-2 cells, genotype A "Long" strain RSV, MOI 0.1; read-out: Human RSV-A (“Long” strain) EC50. The procedure, abridged:
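Hep-2 cells (8,000/well) received 2-fold serial compound dilutions in duplicate and RSV Long strain at MOI 0.1. After 5 days' incubation, cell health was read as ATP by ATPlite luminescence, with virus-only and uninfected controls defining max and minimum CPE; EC50 reported.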

The subject of test [2] is recombinant HMPV CAN97-83 (MPV-GFP1). The experiment in a line: HMPV antiviral assay (MPV-GFP1 eGFP fluorescence in Vero E6 cells). The note with it: human metapneumovirus, Vero C1008, 120 h, read-out: HMPV EC50. The test is classed as cell-based. The method, then: HMPV antiviral activity was evaluated using a recombinant version of HMPV CAN97-83 engineered to contain the coding sequence for enhanced green fluorescence protein (eGFP) in the 3′ end of the virus genome (MPV-GFP1, ViraTree). Vero E6 cells ([…]) were seeded at a density of 12,000 cells/100 μL/well into 96-well cell plates one day prior to the assay. On the day of screening, the cell culture medium was aspirated from the wells and cells were washed twice with serum-free Eagle's Modified Essential Medium (EMEM, ATCC #) containing 1% penicillin-streptomycin (Invitrogen) (SF-EMEM). Cell washes were performed by dispensing 100 μL SF-EMEM per well and immediately aspirating the wash medium from the well. Following the second wash step, serum-free OptiMEM (Invitrogen, Cat No.) (SF-OptiMEM) containing 0.5 μg/mL TPCK-Trypsin (VENDOR) and 1% penicillin-streptomycin was added to the cells at 50 μL/well. Compounds were added into the 96-well plates using a JANUS automated liquid handling system (VENDOR). Compounds were initially diluted 1:50 into an intermediate 96-well plate containing SF-OptiMEM prior to transfer to the assay plate (25 μL/well). Each of the test compounds were tested in duplicate wells at final concentrations starting from 8 μM or 2 μM using ½ stepwise dilutions for a total of 8 points. Virus infection was performed by preparing a working stock of MPV-GFP1 at a multiplicity of infection (MOI) equal to 0.05/25 μL and aliquoting 25 μL of virus inoculum to the compound and positive control wells. SF-OptiMEM was added (25 μL/well) to the appropriate wells to serve as a virus-free negative control for the assay. The final DMSO concentration of all wells is 0.5%. Plates were incubated at 32° C., 5% CO2 for 5 days.
After 5 days incubation, eGFP fluorescence intensity was measured at […] using a Spectramax i3X plate reader (VENDOR). Percent viral inhibition was calculated using the following equation: y=[[…]−(XQ/XP)]×100 Where XQ is the fluorescence intensity measured in a well containing recombinant MPV-GFP1-infected, compound-treated cells and XP is the average fluorescence intensity measured in the wells containing untreated cells infected with recombinant virus. EC50 values were then calculated by non-linear regression using a four parameter curve logistic equation. The curve fit model employed was XLFit Dose Response One Site Model 200: y=(A+(B/(1+((x/C)^D)))) Where A is the minimum y value, B is the maximum y value, C is the log EC50 value, and D is the slope factor. […] EC50 ranges are as follows: A<0.5 μM; B>0.5 μM.

Usually EC50 stands for the concentration that produces a half-maximal response.

On to `C[C@]1(C(N)=O)COc2c1cc([C@@](O)(CNC(=O)c1ccc(OC3CC3)c(-c3cncc(C(F)(F)F)c3)c1)C(F)(F)F)nc2-c1ccc(F)cc1` [Example 104], for which the EC50 was > 200 nM in test [1] and > 500 nM in test [2].
As for `C[C@]1(C(N)=O)COc2c1cc([C@@](O)(CNC(=O)c1ccc(OC3CC3)c(-c3cccc(C(F)(F)F)n3)c1)C(F)(F)F)nc2-c1ccc(F)cc1` [Example 110], the values for the half-maximal effective concentration (EC50) in test [1] and in test [2] were < 200 nM and > 500 nM, respectively.
On the same counts, the results for `C[C@]1(C(N)=O)COc2c1cc([C@@](O)(CNC(=O)c1ccc(OC3CC3)c(-c3cnccn3)c1)C(F)(F)F)nc2-c1ccc(F)cc1` [Example 114] are < 200 nM and > 500 nM.
For `C[C@]1(C(N)=O)COc2c1cc([C@@](O)(CNC(=O)c1ccc(OC3CC3)c(-c3ccncn3)c1)C(F)(F)F)nc2-c1ccc(F)cc1` [Example 116], the figures for the EC50 in test [1] and in test [2] were < 200 nM and > 500 nM, respectively.
On the same counts, the results for `C[C@]1(C(N)=O)COc2c1cc([C@@](O)(CNC(=O)c1ccc(OC3CC3)c(C3CC3)c1)C(F)(F)F)nc2-c1ccc(F)cc1` [Example 123] are < 200 nM and > 500 nM.
On the same counts, the results for `C[C@]1(C(N)=O)COc2c1cc([C@@](O)(CNC(=O)c1ccc(OC3CC3)c(-c3ncco3)c1)C(F)(F)F)nc2-c1ccc(F)cc1` [Example 124] are < 200 nM and > 500 nM.
On the same counts, the results for `Cc1ncc(-c2cc(C(=O)NC[C@](O)(c3cc4c(c(-c5ccc(F)cc5)n3)OC[C@]4(C)C(N)=O)C(F)(F)F)ccc2OC2CC2)s1` [Example 126] are < 200 nM and > 500 nM.
For `C[C@]1(C(N)=O)COc2c1cc([C@@](O)(CNC(=O)c1ccc(OC3CC3)c(-c3ncccn3)c1)C(F)(F)F)nc2-c1ccc(F)cc1` [Example 127], the EC50 is < 200 nM in test [1] and > 500 nM in test [2].
On the same counts, the results for `C[C@]1(C(N)=O)COc2c1cc([C@@](O)(CNC(=O)c1ccc(OC3CC3)c(N3CCC3)c1)C(F)(F)F)nc2-c1ccc(F)cc1` [Example 136] are < 200 nM and > 500 nM.
On the same counts, the results for `Cc1ncc(-c2cc(C(=O)NC[C@](O)(c3cc4c(c(-c5ccc(F)cc5)n3)OC[C@]4(C)C(N)=O)C(F)(F)F)ccc2OC2CC2)cn1` [Example 137] are < 200 nM and < 500 nM.
On the same counts, the results for `Cc1cnc(-c2ccc(C(=O)NC[C@](O)(c3cc4c(c(-c5ccc(F)cc5)n3)OC[C@]4(C)C(N)=O)C(F)(F)F)cc2OC2CC2)o1` [Example 179] are < 200 nM and > 500 nM.
As for `Cc1ncoc1-c1ccc(C(=O)NC[C@](O)(c2cc3c(c(-c4ccc(F)cc4)n2)OC[C@]3(C)C(N)=O)C(F)(F)F)cc1OC1CC1` [Example 180], the values for the EC50 in test [1] and in test [2] were < 200 nM and > 500 nM, respectively.
With `COc1cc(C(=O)NC[C@](O)(c2cc3c(c(-c4ccc(F)cc4)n2)OC[C@]3(C)C(N)=O)C(F)(F)F)ccc1-c1ocnc1C` [Example 183], the EC50 in test [1] is < 200 nM; in test [2], > 500 nM.
On the same counts, the results for `Cc1nc(-c2ccc(C(=O)NC[C@](O)(c3cc4c(c(-c5ccc(F)cc5)n3)OC[C@]4(C)C(N)=O)C(F)(F)F)cc2OC2CC2)co1` [Example 196] are > 200 nM and > 500 nM.
Turning to `COc1cc(C(=O)NC[C@](C)(O)c2cc3c(c(-c4ccc(F)cc4)n2)OC[C@]3(C)C(N)=O)cc2cccnc12` [Example 219], the EC50 in test [1] is < 200 nM; in test [2] it was > 500 nM.
On the same counts, the results for `C[C@]1(C(N)=O)COc2c1cc([C@@](O)(CNC(=O)c1cc(Cl)c3ncccc3c1)C(F)(F)F)nc2-c1ccc(F)cc1` [Example 221] are < 200 nM and < 500 nM.
On the same counts, the results for `COc1cc(C(=O)NC[C@](O)(c2cc3c(c(-c4ccc(F)cc4)n2)OC[C@]3(C)C(N)=O)C(F)(F)F)cc2ccc(C)nc12` [Example 222] are < 200 nM and < 500 nM.
As to `Cc1ccc2cc(C(=O)NC[C@](O)(c3cc4c(c(-c5ccc(F)cc5)n3)OC[C@]4(C)C(N)=O)C(F)(F)F)cc(OC3CC3)c2n1` [Example 223], the EC50 was < 200 nM in test [1] and < 500 nM in test [2].
On the same counts, the results for `C[C@]1(C(N)=O)COc2c1cc([C@@](O)(CNC(=O)c1cc(OC3CC3)c3ncccc3c1)C(F)(F)F)nc2-c1ccccc1` [Example 228] are < 200 nM and > 500 nM.
Regarding `C[C@]1(C(N)=O)COc2c1cc([C@@](O)(CNC(=O)c1ccc3nnccc3c1)C(F)(F)F)nc2-c1ccc(F)cc1` [Example 230], the concentration giving a half-maximal response (EC50) in test [1] was < 200 nM; in test [2] it was > 500 nM.
On the same counts, the results for `C[C@]1(C(N)=O)COc2c1cc([C@@](O)(CNC(=O)c1ccc3cnccc3c1)C(F)(F)F)nc2-c1ccc(F)cc1` [Example 232] are < 200 nM and > 500 nM.
On the same counts, the results for `Cc1cnc2c(O)cc(C(=O)NC[C@](O)(c3cc4c(c(-c5ccc(F)cc5)n3)OC[C@]4(C)C(N)=O)C(F)(F)F)cc2c1` [Example 252] are < 200 nM and > 500 nM.
On the same counts, the results for `COc1cc(C(=O)NC[C@](O)(c2cc3c(c(-c4ccc(F)cc4)n2)OC[C@]3(C)C(N)=O)C(F)(F)F)cc2cc(C)cnc12` [Example 255] are < 200 nM and < 500 nM.
As for `COc1cc(C(=O)NC[C@](O)(c2cc3c(c(-c4ccc(F)cc4)n2)OC[C@]3(C)C(N)=O)C2CC2)cc2cc(C)cnc12` [Example 256], the EC50 in test [1] is < 200 nM; in test [2], < 500 nM.
On the same counts, the results for `COc1cc(C(=O)NC[C@](O)(c2cc3c(c(-c4ccc(F)c(Cl)c4)n2)OC[C@]3(C)C(N)=O)C(F)(F)F)cc2cc(C)cnc12` [Example 257] are < 200 nM and < 500 nM.
On the same counts, the results for `CCc1cnc2c(OC)cc(C(=O)NC[C@](O)(c3cc4c(c(-c5ccc(F)cc5)n3)OC[C@]4(C)C(N)=O)C(F)(F)F)cc2c1` [Example 262] are < 200 nM and > 500 nM.
On the same counts, the results for `C[C@](O)(CNC(=O)c1cc(OC2CC2)c2ncccc2c1)c1cc2c(c(-c3ccc(F)cc3)n1)OC[C@]2(C)C(N)=O` [Example 265] are < 200 nM and < 500 nM.
For `C[C@]1(C(N)=O)COc2c1cc([C@@](O)(CNC(=O)c1ccc3ncccc3c1)C(F)(F)F)nc2-c1ccc(F)cc1` [Example 269], the values for the EC50 in test [1] and in test [2] were < 200 nM and < 500 nM, respectively.
On the same counts, the results for `C[C@]1(C(N)=O)COc2c1cc([C@@](O)(CNC(=O)c1cc(OC3CC3)c3ncccc3c1)C1CC1)nc2-c1ccc(F)cc1` [Example 280] are < 200 nM and < 500 nM.
On the same counts, the results for `C[C@]1(C(N)=O)COc2c1cc([C@@](O)(CNC(=O)c1cc(Cl)c3ncccc3c1)C1CC1)nc2-c1ccc(F)cc1` [Example 281] are < 200 nM and < 500 nM.
On the same counts, the results for `C[C@@H](O)COc1cc(C(=O)NC[C@](O)(c2cc3c(c(-c4ccc(F)cc4)n2)OC[C@]3(C)C(N)=O)C(F)(F)F)cc2cccnc12` [Example 287] are > 200 nM and > 500 nM.
As to `C[C@@H](O)COc1ccc(C(=O)NC[C@](O)(c2cc3c(c(-c4ccc(F)cc4)n2)OC[C@]3(C)C(N)=O)C(F)(F)F)cc1OC1CC1` [Example 289], the EC50 in test [1] is < 200 nM; in test [2], > 500 nM.
On the same counts, the results for `COc1cc(C(=O)NC[C@](O)(c2cc3c(c(-c4ccc(F)cc4)n2)OC[C@]3(C)C(N)=O)C(F)(F)F)ccc1OC[C@@H](C)O` [Example 290] are < 200 nM and < 500 nM.
On the same counts, the results for `C[C@]1(C(N)=O)COc2c1cc([C@@](O)(CNC(=O)c1cc(Nc3ccncc3)c3ncccc3c1)C(F)(F)F)nc2-c1ccc(F)cc1` [Example 336] are < 200 nM and > 500 nM.
For the compound `C[C@]1(C(N)=O)COc2c1cc([C@@](O)(CNC(=O)c1cc(Nc3ncccn3)c3ncccc3c1)C(F)(F)F)nc2-c1ccc(F)cc1` [Example 337], the results for the EC50 in test [1] and in test [2] were < 200 nM and > 500 nM, respectively.
